From ChEMBL document CHEMBL1201862, “PubChem BioAssay data set” (2004)
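Test compounds were applied to cells in 96-well plates for 48 hours at 5 doses. At the GI50, growth is halved.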 Activity calls are given as the source filed them. Rule as the data show it: active = GI50 up to about 1.1 µM and inactive = higher.

What was measured:
Experiment in all cases: NCI tumour cell line growth inhibition, 48 h
SF-539 = test system: SF-539
OVCAR-8 = test system: OVCAR-8
OVCAR-5 = test system: OVCAR-5
NCI-H522 = test system: NCI-H522
NCI-H23 = test system: NCI-H23
NCI-H460 = test system: NCI-H460
M14 = test system: M14
SF-295 = test system: SF-295
KM-20L2 = test system: KM-20L2
LOX IMVI = test system: LOX IMVI
HCC 2998 = test system: HCC 2998
SK-MEL-5 = test system: SK-MEL-5
SR = test system: SR
SNB-19 = test system: SNB-19
XF498 = test system: XF498
HCT-15 = test system: HCT-15
HOP-18 = test system: HOP-18
SW-620 = test system: SW-620
SK-MEL-2 = test system: SK-MEL-2
K562 = test system: K562
HCT-116 = test system: HCT-116
786-0 = test system: 786-0
HT-29 = test system: HT-29
KM12 = test system: KM12
RPMI-8226 = test system: RPMI-8226
TK-10 = test system: TK-10
CCRF-CEM = test system: CCRF-CEM
M19-MEL = test system: M19-MEL
RXF 393 = test system: RXF 393
OVCAR-4 = test system: OVCAR-4
A549 = test system: A549
UO-31 = test system: UO-31
COLO 205 = test system: COLO 205
SK-OV-3 = test system: SK-OV-3
EKVX = test system: EKVX
OVCAR-3 = test system: OVCAR-3
SNB-78 = test system: SNB-78
SK-MEL-28 = test system: SK-MEL-28
DMS-273 = test system: DMS-273
U-251 = test system: U-251
SNB-75 = test system: SNB-75
NCI-H226 = test system: NCI-H226
UACC-62 = test system: UACC-62
MOLT-4 = test system: MOLT-4
DLD-1 = test system: DLD-1
IGROV-1 = test system: IGROV-1
SF-268 = test system: SF-268
CAKI-1 = test system: CAKI-1
ACHN = test system: ACHN
HOP-92 = test system: HOP-92
HL-60 = test system: HL-60
UACC-257 = test system: UACC-257
Malme-3M = test system: Malme-3M
SN12C = test system: SN12C
HOP-62 = test system: HOP-62
A498 = test system: A498
LXFL 529 = test system: LXFL 529
DMS-114 = test system: DMS-114

Measured: GI50

O=c1c2ccccc2n2n1CC(O)C2 (centres undefined)
> 100 µM: HCT-15
active: UACC-62 0.641 µM
inactive: SF-539 > 100 µM | OVCAR-8 > 100 µM | OVCAR-5 > 100 µM | NCI-H522 > 100 µM | NCI-H23 > 100 µM | NCI-H460 > 100 µM | M14 > 100 µM | SF-295 > 100 µM | KM-20L2 > 100 µM | LOX IMVI > 100 µM | HCC 2998 > 100 µM | SK-MEL-5 > 100 µM | SR > 100 µM | SNB-19 > 100 µM | XF498 > 100 µM | HOP-18 > 100 µM | SW-620 > 100 µM | SK-MEL-2 > 100 µM | K562 > 100 µM | HCT-116 > 100 µM | 786-0 > 100 µM | HT-29 > 100 µM | KM12 > 100 µM | RPMI-8226 > 100 µM | TK-10 > 100 µM | CCRF-CEM > 100 µM | M19-MEL > 100 µM | RXF 393 > 100 µM | OVCAR-4 > 100 µM | A549 > 100 µM | UO-31 > 100 µM | COLO 205 > 100 µM | SK-OV-3 > 100 µM | EKVX > 100 µM | OVCAR-3 > 100 µM | SNB-78 9.35 µM | SK-MEL-28 > 100 µM | DMS-273 > 100 µM | U-251 > 100 µM | SNB-75 > 100 µM | NCI-H226 > 100 µM | MOLT-4 > 100 µM | DLD-1 > 100 µM | IGROV-1 > 100 µM | SF-268 > 100 µM | CAKI-1 > 100 µM | ACHN 2.14 µM | HOP-92 > 100 µM | HL-60 > 100 µM | UACC-257 > 100 µM | Malme-3M 4.56 µM | SN12C > 100 µM | HOP-62 > 100 µM

Cc1ccc(C)c(NC2=NC(=O)C(CC(=O)Nc3ccc(Cl)cc3Cl)S2)c1 (centres undefined)
inactive: SF-539 41.4 µM | OVCAR-8 66.1 µM | OVCAR-5 > 100 µM | NCI-H522 24 µM | NCI-H23 43.8 µM | NCI-H460 > 100 µM | M14 > 100 µM | SF-295 > 100 µM | A498 28.6 µM | KM-20L2 > 100 µM | LOX IMVI > 100 µM | HCC 2998 46 µM | SK-MEL-5 > 100 µM | SNB-19 48.5 µM | XF498 32.7 µM | HOP-18 > 100 µM | LXFL 529 58.7 µM | SW-620 > 100 µM | SK-MEL-2 29.5 µM | K562 80.2 µM | 786-0 51.8 µM | HT-29 > 100 µM | KM12 52.6 µM | RPMI-8226 > 100 µM | TK-10 > 100 µM | CCRF-CEM 41.4 µM | M19-MEL 59.4 µM | RXF 393 31.2 µM | OVCAR-4 49.2 µM | A549 > 100 µM | UO-31 > 100 µM | COLO 205 88.7 µM | SK-OV-3 > 100 µM | EKVX > 100 µM | OVCAR-3 49.9 µM | SK-MEL-28 77.6 µM | DMS-273 98.6 µM | U-251 36.1 µM | SNB-75 44.7 µM | NCI-H226 28.1 µM | UACC-62 28.9 µM | MOLT-4 54.8 µM | DMS-114 42.6 µM | DLD-1 > 100 µM | IGROV-1 > 100 µM | SF-268 37.8 µM | CAKI-1 > 100 µM | ACHN > 100 µM | HL-60 > 100 µM | UACC-257 > 100 µM | Malme-3M 70.5 µM | SN12C > 100 µM | HOP-62 > 100 µM
> 100 µM: HCT-15
